Experimental data published in article PMC10808224, “Lsr2 acts as a cyclic di-GMP receptor that promotes keto-mycolic acid synthesis and biofilm formation in mycobacteria” (Nature Communications, 2024).

Target: T1, Lsr2Msm (Mycolicibacterium smegmatis, UniProt A0R576)
T1 construct: gene MSMEG_6092; recombinant, E. coli BL21 (DE3), modified pET28a, C-terminal His-tag, Ni-NTA purified
Assay: isothermal titration calorimetry
Type: binding

Nc1nc2c(ncn2[C@@H]2O[C@@H]3CO[P@](=O)(O)O[C@H]4[C@@H](O)[C@H](n5cnc6c(=O)[nH]c(N)nc65)O[C@@H]4CO[P@](=O)(O)O[C@H]3[C@H]2O)c(=O)[nH]1 [c-di-GMP]
Kd: 96.4 nM
